One experiment deals with T1, PI3Kα (Homo sapiens, UniProt P42336).
T1 construct: His6 (N); made in house; host or cells: S. frugiperda 9 (Sf9) insect cells
Nature of the experiment: Solid-phase lipid kinase assay of PI3Kα (p110α assay). The experiment is classed as biochemical. Conditions: recombinant truncated human p110α, 10 μM ATP. The source says:
[Determination of IC50 Values of Compounds in Kinase Assay of PI3Kα]
LABORATORIES (Toronto, Canada). […] [γ^33P]ATP and unlabeled ATP were purchased from […] […] BIOTECH (Buckinghamshire, UK) and ROCHE DIAGNOSTICS (Mannheim, Germany), respectively. Scintillation cocktails and MicroScint PS™ were purchased from PACKARD (Meriden, Conn.). Maxisorp™ plates were purchased from NALGE NUNC INTERNATIONAL K.K. (Tokyo, Japan). All other chemicals not further specified were from WAKO PURE CHEMICALS (Osaka, Japan).
The plates were subsequently air-dried by incubation for at least 2 hours in a fume hood. The reaction was set up by mixing 25 μL/well of assay buffer 2×(100 mM MOPSO/NaOH, 0.2 M NaCl, pH 7.0, 8 mM MgCl2, 2 mg/mL BSA (fatty acid-free)), and 7.5 ng/well PI3Kα in the lipid pre-coated plate. 100× test compounds were added in 2% DMSO. The reaction was started by adding 20 μL/well of ATP mix (final 10 μM ATP; 0.05 μCi/well [γ^33P]ATP). After incubation at RT for 2 hours, the reaction was terminated by adding 50 μl/well stop solution (50 mM EDTA, pH 8.0). The plate was then washed twice with Tris-buffered saline (TBS, pH 7.4). MicroScint PS™ (PACKARD) scintillation mix was added at 100 μL/well, and radioactivity was counted using a TopCount™ (PACKARD) scintillation counter.
The inhibition percent at each concentration of compound was calculated, and IC50 values were determined from the inhibition of curve.

The target of a further experiment is T2, PI3Kβ (Homo sapiens, UniProt P42338).
T2 construct: His6 (N); made in house; host or cells: S. frugiperda 9 (Sf9) insect cells
The experiment is described as follows: Isozyme selectivity test: kinase assay of PI3Kβ (p110β assay). The class given is biochemical. Conditions: recombinant truncated p110β, 7.5 ng protein/well. The source says: [Isozyme Selectivity Test in PI3K]
Determination of IC50 Values of Compounds in Kinase Assays of PI3Kβ and PI3Kγ

The subject of experiment [1] is IGF-1 induced AKT phosphorylation in A549 cells. Nature of the experiment: IGF-1 induced AKT phosphorylation assay (A549 cell assay). The class given is cell-based. The conditions noted are these: Homo sapiens; A549 cells, 25 ng/ml IGF-1, phospho-AKT(Ser 473); read-out: average IC50 in the A549 cell assay. The gist of the method:
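A549 cells stimulated with 25 ng/ml IGF-1 for 10 min at 37 °C, then fixed in formaldehyde/methanol. Phospho-AKT detected by cell ELISA (primary anti-phospho-AKT, HRP secondary, ECL luminescence); IC50 from inhibition curve.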

The results in this text go back to patent USRE46856E1, “Substituted 2,3-dihydroimidazo[1,2-c]quinazoline derivatives useful for treating hyper-proliferative disorders and diseases associated with angiogenesis” (Bayer Intellectual Property GmbH, priority 2006, dated 2018).

T1 sequence (P42336 109-1068): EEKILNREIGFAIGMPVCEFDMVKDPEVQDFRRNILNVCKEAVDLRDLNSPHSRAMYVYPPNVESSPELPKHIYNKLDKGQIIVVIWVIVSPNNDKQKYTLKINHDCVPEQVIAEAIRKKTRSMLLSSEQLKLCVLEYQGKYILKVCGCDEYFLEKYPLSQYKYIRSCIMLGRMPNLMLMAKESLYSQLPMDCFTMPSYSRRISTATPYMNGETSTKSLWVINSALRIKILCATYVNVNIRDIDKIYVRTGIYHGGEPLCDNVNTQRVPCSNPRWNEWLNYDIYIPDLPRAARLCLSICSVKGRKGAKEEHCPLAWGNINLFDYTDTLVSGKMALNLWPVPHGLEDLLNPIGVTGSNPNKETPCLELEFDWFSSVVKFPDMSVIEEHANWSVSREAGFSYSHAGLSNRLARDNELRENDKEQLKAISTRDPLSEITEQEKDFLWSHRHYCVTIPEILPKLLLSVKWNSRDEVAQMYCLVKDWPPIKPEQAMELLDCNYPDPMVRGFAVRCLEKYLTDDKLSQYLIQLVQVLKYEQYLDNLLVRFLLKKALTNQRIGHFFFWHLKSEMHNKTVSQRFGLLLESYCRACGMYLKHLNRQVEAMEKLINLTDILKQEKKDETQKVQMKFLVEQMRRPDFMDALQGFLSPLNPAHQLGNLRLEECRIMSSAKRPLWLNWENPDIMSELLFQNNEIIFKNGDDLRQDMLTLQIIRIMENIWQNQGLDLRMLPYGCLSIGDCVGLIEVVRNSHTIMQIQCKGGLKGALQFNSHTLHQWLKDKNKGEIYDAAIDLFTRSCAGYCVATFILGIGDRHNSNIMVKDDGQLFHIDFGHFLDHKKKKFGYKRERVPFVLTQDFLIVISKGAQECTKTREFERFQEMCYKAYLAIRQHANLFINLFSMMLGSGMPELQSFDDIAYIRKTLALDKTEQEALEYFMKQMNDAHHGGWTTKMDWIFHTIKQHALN
T2 sequence (P42338 109-1070): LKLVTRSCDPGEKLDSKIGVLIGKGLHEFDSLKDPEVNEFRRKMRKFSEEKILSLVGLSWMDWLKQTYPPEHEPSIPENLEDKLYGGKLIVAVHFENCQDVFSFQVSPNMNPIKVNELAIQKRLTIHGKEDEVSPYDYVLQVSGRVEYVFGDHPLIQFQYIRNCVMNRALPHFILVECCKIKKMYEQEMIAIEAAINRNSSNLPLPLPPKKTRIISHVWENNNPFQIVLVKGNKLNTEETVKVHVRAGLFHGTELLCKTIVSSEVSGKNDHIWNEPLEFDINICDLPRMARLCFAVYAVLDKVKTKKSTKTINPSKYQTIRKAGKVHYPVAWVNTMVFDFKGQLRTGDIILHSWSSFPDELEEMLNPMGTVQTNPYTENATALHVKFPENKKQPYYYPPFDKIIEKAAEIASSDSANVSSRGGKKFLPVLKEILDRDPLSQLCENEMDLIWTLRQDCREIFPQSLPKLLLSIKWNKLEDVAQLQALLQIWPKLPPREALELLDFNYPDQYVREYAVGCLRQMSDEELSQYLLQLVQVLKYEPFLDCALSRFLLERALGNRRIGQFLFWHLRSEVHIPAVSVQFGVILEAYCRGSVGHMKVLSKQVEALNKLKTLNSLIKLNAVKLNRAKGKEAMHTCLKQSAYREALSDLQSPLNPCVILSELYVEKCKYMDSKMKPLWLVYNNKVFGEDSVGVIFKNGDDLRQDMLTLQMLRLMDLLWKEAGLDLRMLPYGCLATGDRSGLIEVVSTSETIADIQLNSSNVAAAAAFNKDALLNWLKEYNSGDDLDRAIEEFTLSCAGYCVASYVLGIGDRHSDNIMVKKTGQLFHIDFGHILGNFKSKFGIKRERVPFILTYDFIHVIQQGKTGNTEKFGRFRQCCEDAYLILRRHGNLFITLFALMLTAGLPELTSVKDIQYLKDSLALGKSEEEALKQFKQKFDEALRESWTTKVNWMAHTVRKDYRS

By IC50 is commonly meant the midpoint of a concentration-inhibition curve. Turning to `COc1c(OCCCN2CCOCC2)ccc2c1N=C(NC(=O)c1cn(C)cn1)N1CCN=C21` [Example 26, N-[7-methoxy-8-(3-morpholin-4-ylpropoxy)-2,3-dihydroimidazo[1,2-c]quinazolin-5-yl]-1-methyl-1H-imidazole-4-carboxamide], the results for the IC50 (at PI3Kα; on PI3Kβ; in experiment [1]) were 10 to 100 nM, 10 to 100 nM and above 1000 nM, respectively.

Consider `COc1c(OCCCN2CCOCC2)ccc2c1N=C(NC(=O)c1ccc(NC(=O)C(C)(C)C)nc1)N1CCN=C21` [Example 59, 6-[(2,2-dimethylpropanoyl)amino]-N-[7-methoxy-8-(3-morpholin-4-ylpropoxy)-2,3-dihydroimidazo[1,2-c]quinazolin-5-yl]nicotinamide], for which the results for the IC50 (on PI3Kα; at PI3Kβ; in experiment [1]) were above 100 nM, above 100 nM and above 1000 nM, respectively.

Consider `COCCN1CCOC(CCOc2ccc3c(c2OC)N=C(NC(=O)c2cccnc2)N2CCN=C32)C1` (stereo not drawn) [Example 20, N-(7-methoxy-8-{2-[4-(2-methoxyethyl)morpholin-2-yl]ethoxy}-2,3-dihydroimidazo[1,2-c]quinazolin-5-yl)nicotinamide], for which the IC50 was below 10 nM on PI3Kα, below 10 nM at PI3Kβ and below 100 nM in experiment [1].

Turning to `COc1c(OCCCN2CCOCC2)ccc2c1N=C(NC(=O)c1ccc(N3CCOCC3)nc1)N1CCN=C21` [Example 57, N-[7-methoxy-8-(3-morpholin-4-ylpropoxy)-2,3-dihydroimidazo[1,2-c]quinazolin-5-yl]-6-morpholin-4-ylnicotinamide], the 50% inhibitory concentration (IC50) at PI3Kα was 10 to 100 nM; at PI3Kβ, 10 to 100 nM; in experiment [1], 100 to 1000 nM.

As to `COCCCNc1ncc(C(=O)NC2=Nc3c(ccc(OCCCN4CCOCC4)c3OC)C3=NCCN23)cn1` [Example 41, N-[7-methoxy-8-(3-morpholin-4-ylpropoxy)-2,3-dihydroimidazo[1,2-c]quinazolin-5-yl]-2-[(3-methoxypropyl)amino]pyrimidine-5-carboxamide], the values for the IC50 (on PI3Kα; at PI3Kβ; in experiment [1]) were 10 to 100 nM, 10 to 100 nM and 100 to 1000 nM, respectively.

Take `COc1c(OCCCN2CCOCC2)ccc2c1N=C(NC(=O)c1csc(C)n1)N1CCN=C21` [Example 98, N-[7-methoxy-8-(3-morpholin-4-ylpropoxy)-2,3-dihydroimidazo[1,2-c]quinazolin-5-yl]-2-methyl-1,3-thiazole-4-carboxamide]: the IC50 is 10 to 100 nM at PI3Kα, 10 to 100 nM on PI3Kβ and above 1000 nM in experiment [1].

As to `COc1c(OCCCN2CCOCC2)ccc2c1N=C(NC(=O)c1cnc(N3CCN(C)CC3)nc1)N1CCN=C21` [Example 48, N-[7-methoxy-8-(3-morpholin-4-ylpropoxy)-2,3-dihydroimidazo[1,2-c]quinazolin-5-yl]-2-(4-methylpiperazin-1-yl)pyrimidine-5-carboxamide], the IC50 was above 100 nM on PI3Kα, above 100 nM on PI3Kβ and above 1000 nM in experiment [1].
